In patent US20040086942A1, “Ige receptor antagonists” (priority 2003, published 2004):
“Also recorded” adds a separate entry of the source. Where two headings read alike, the source gives them in different places. Blank lines part the entries; values can stand above or below the compound they belong to. Where a SMILES comes first, the peptide text is derived from it. Bridges are numbered along the chain shown (N, C = ends). Roman numbers before positions name the chains, in order. Where no end group is shown, it is not given here.

Assays:
[1] = molecular target: T1, RBL-48 cells (Homo sapiens, UniProt P12319); experiment: histamine release assay: induction of histamine release by peptide; conditions: peptide 0.5 mM on RBL-48 cells
T1 sequence (P12319 26-257): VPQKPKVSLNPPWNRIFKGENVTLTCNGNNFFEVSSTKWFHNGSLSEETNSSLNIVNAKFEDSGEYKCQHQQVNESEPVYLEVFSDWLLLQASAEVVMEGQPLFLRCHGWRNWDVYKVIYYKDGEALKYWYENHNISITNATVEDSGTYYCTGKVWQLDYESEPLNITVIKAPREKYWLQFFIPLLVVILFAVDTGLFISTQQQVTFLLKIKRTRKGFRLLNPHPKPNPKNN
Description: Peptides were assayed in a histamine release assay (Lowe et al., (1995) J. Immunol. Methods, 184:113-122) to determine: (1) if the peptides could trigger histamine release and (2) if the peptides could prevent histamine release in the presence of ragweed and ragweed specific IgE. Rat basophil cell line RBL-48, which expresses the human FcεRI alpha subunit was cultured overnight in Falcon 96 flat well microtiter dishes. The cells were washed three times with growth media and then incubated in Iscove's MEM medium containing 10% fetal bovine serum and 3 USP units per milliliter of heparin (histamine assay buffer).

[2] = molecular target: T2, FcεRIα (Homo sapiens, UniProt P12319); experiment: surface plasmon resonance biosensor direct-binding assay; conditions: for EC50: midpoint of 4-parameter fit to peptide saturation curve, immobilized receptor, read-out: Binding affinity: EC50 (uM) ± s.d.
T2 construct: human FcεRI(aa 1-176) was expressed using a baculovirus secretion expression system; host or cells: Hi-5 insect cells infected with baculovirus (virus produced in Sf9; transfer vector pAcGP67)
T2 sequence (P12319 26-201): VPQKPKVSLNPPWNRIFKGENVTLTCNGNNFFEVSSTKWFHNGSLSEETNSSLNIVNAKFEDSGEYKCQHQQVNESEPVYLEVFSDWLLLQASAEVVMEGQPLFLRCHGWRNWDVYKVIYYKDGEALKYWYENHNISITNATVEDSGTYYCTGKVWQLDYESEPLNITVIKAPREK
Description: Several peptides were also tested in a direct-binding assay using a surface plasmon resonance biosensor (Lofas & Johnsson, J. Chem. Soc. Commun. 21, 1526-1528 (1990)). FcεRIα, produced in baculovirus infected insect cells, was immobilized by the surface thiol method (BIAcore Methods Manual Supplement 5a, BIAcore, Inc., Piscataway, N.J.). Briefly, receptor was reacted with 2-(2pyridinyldithio)ethaneamine hydrochloride (PDEA; Natake & Swaisgood, J. Biochem. 74, 77-86 (1973)), desalted into 10 mM sodium acetate (pH 4.8) and stored in aliquots at −80″C. Thawed PDEA-receptor was injected over carboxymethyl-dextran (B1 or CM5, BIAcore, Inc.) biosensor chips preactivated with N-ethyl-N′-(3-dimethylaminopropyl)-carbodiimide hydrochloride (EDC) and N-hydroxysuccinimide (NHS), cystamine, and DTT. Following coupling, reactive groups on the chip were quenched with […] and ethanolarine. Serial dilutions of peptide in running buffer (phosphate-buffered saline containing 0.05% Tween-20, 0.01% sodium azide) were injected over the immobilized receptor, and the net amount of peptide bound at steady-state was measured as the net change in response (RU) at a point just prior to termination of peptide injection, compared to a running-buffer baseline. Binding affinities (Table 10) are reported as the midpoint (EC50) of a 4-parameter fit to the peptide saturation curve.

[3] = 2D NMR structural score versus reference peptide; format: physicochemical; set-up: key to Structure Score: +++, peptide structurally similar to reference; +, structurally similar to reference but significantly less stable; +/−, peptide has some elements of stable structure, but the conformation differs from the reference structure; −, peptide is predominantly unstructured; *peptide IGE037 (SEQ ID NO:128) was initially unstructured (monomeric form), but became structured after spontaneous dimer formation; conditions: reference IGE134
Outline: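 Backbone ¹H resonances assigned by 2D NMR and ³JHN-Hα coupling constants measured against a reference peptide. Structure scored similar when chemical shifts, coupling constants and NOEs are consistent with the reference structure.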

[4] = molecular target: T3, FcεRI (Homo sapiens, UniProt P12319); experiment: competitive phage ELISA on baculovirus-derived FcεRI; format: binding; conditions: compared with the parent
T3 construct: human FcεRI(aa 1-176) was expressed using a baculovirus secretion expression system; host or cells: Hi-5 insect cells infected with baculovirus (virus produced in Sf9; transfer vector pAcGP67)
T3 sequence (P12319 26-201): T2 sequence (P12319 26-201)
From the text: The extracellular domain of the alpha subunit of the human FcεRI(aa 1-176) was expressed using a baculovirus secretion expression system (Pharminten). cDNA encoding this domain was obtained through PCR of a plasmid containing a full length clone. The DNA fragment was ligated into baculovirus tranfer vector pAcGP67 and along with BaculoGold linearized baculovirus DNA was transfected into Sf9 cells Spodoptera frugiperda insect cells for baculovirus production (Pharmingen). Soluble FcεRI was affinity purified from the growth media of baculovirus infected Hi-5 insect cells (Expression Systems).
Phage ELISA assays were carried out as described (Lowman, 1998, supra), using Nunc Maxisorp™ plates coated with a 2 μg/mL solution of baculovirus-derived FcεRI. Peptide-phage were pre-incubated for 5-10 min with serial dilutions of receptor, then added to the receptor-coated plate. After incubation for 1 h at room temperature, the plates were washed and an anti-phage HRP-conjugated antibody (Pharmacia) was added. After further incubation for 20 min, plates were again washed and developed using the substrate OPD (Sigma). Optical density at 492 nm was read and plotted as a function of FcεRI concentration to determine an IC50 of inhibition by each peptide-phage variant.
A phage-based alanine scanning approach was used to map the FcεRI binding determinants of IGE134 (SEQ ID NOS:155, 171), as described above for IGE120 (SEQ ID NO:131, 159). […] Additionally, combinations of Ala mutations, deletions, and other substitutions were tested.

[5] = molecular target: T4, alpha subunit of the human FcεRI receptor (Homo sapiens, UniProt P12319); experiment: cell-based 125I-IgE binding inhibition assay on CHO FcεRI+ cells
T4 construct: expressed in transfected cells; host or cells: Chinese hamster ovary (CHO FcεRI+) cells
T4 sequence (P12319 26-257): T1 sequence (P12319 26-257)
Outline: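 Peptides, serially diluted 1:3 from 50-500 uM, preincubated 1 h at room temperature on CHO cells expressing human FcεRI alpha, then 1.5 nM 125I-IgE added for 45-60 min at 4 °C. Buffer F12/DMEM, 1% BSA, 0.05% NaN3, pH 7.2. Bound counts by gamma counting; IC50 from 4-parameter fits.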

[6] = disulfide reshuffling of monomer peptide to homodimer in solution; format: physicochemical; conditions: in water or buffer at neutral pH
From the text: This change occurs slowly, over a 3-12 day period following the solubilization of the peptide in water or buffer at neutral pH. […] Additional support for the occurrence of a change came from NMR data detecting a change in the one-dimensional NMR spectrum. Also HPLC reverse phase data indicated a change in retention time that correlated with the activity and the conversion of a monomer to a dimer. Final confirmation of the formation of an active dimer followed the syntheses of both parallel (IGE088, SEQ ID NO:128, 128) and anti-parallel (IGE089, SEQ ID NOS:128, 157) […] disulfide-linked dimer peptides. Both peptide forms were assayed for activity in inhibiting I^125-IgE binding to cell surface expressed FcεRI.

[7] = solubility in assay/binding buffer; format: physicochemical; conditions: assay buffer of the IgE binding inhibition assay
[8] = IgE-inhibition activity of synthetic peptides, read-out: Inhibition activity: C+hd 50 +l (uM) ± s.d.

Compound: PRCTEGPWGWVCM (disulfide 3-12 (inferred); not fully specified (C-terminus))
levels of histamine released [1]: equivalent to that of the negative control

Compound: CC(C)C[C@@H]1NC(=O)[C@H](CCC(=O)O)NC(=O)[C@H](Cc2ccc(O)cc2)NC(=O)[C@@H]2CSSC[C@H](NC(=O)[C@H](CC(C)C)NC(=O)[C@H](CCC(=O)O)NC(=O)[C@H](Cc3ccc(O)cc3)NC(=O)[C@H](CC(=O)O)NC1=O)C(=O)N1CCC[C@H]1C(=O)N[C@@H](CC(=O)O)C(=O)N[C@@H](C(C)C)C(=O)N[C@H](C(=O)N[C@@H](Cc1ccc(O)cc1)C(=O)N[C@H](C(N)=O)C(C)C)CSSC[C@H](NC(=O)[C@H](CCC(N)=O)NC(=O)[C@@H](N)C(C)C)C(=O)N1CCC[C@H]1C(=O)N[C@@H](Cc1c[nH]cn1)C(=O)N[C@@H](Cc1ccccc1)C(=O)N2 [IGE134] (H-VQCPHFCYELDYELCPDVCYV-NH2; disulfide 3-19, 7-15; N-terminus assumed)
Kd [2]: 0.032 µM
Structure Score [3]: +++
relative binding affinity (in words) [4]: improved affinity over IGE122
IC50 ([5]; average IC50, inhibition assay (Table 9)): 0.032 µM

Compound: CSCC[C@H](NC(=O)[C@@H]1CSSC[C@H](NC(=O)[C@@H](NC(=O)[C@H](C)NC(=O)[C@H](CCC(=O)O)NC(=O)[C@H](C)N)[C@@H](C)O)C(=O)N[C@@H]([C@@H](C)O)C(=O)N[C@@H](CCC(=O)O)C(=O)NCC(=O)N2CCC[C@H]2C(=O)N[C@@H](Cc2c[nH]c3ccccc23)C(=O)NCC(=O)N[C@@H](Cc2c[nH]c3ccccc23)C(=O)N[C@@H](C(C)C)C(=O)N1)C(=O)N[C@@H](C)C(=O)N[C@@H](C)C(=O)N[C@@H](CC(=O)O)C(=O)O [AEATCTEGPWGWVCMAAD] (H-AEATCTEGPWGWVCMAAD-OH; disulfide 5-14)
solubility in the assay/binding buffer [7]: not soluble; also recorded: insoluble

Compound: CC(C)[C@H](N)C(=O)N[C@@H](CCC(N)=O)C(=O)N[C@H]1CSSC[C@@H](C(=O)N[C@@H](Cc2ccc(O)cc2)C(=O)N[C@H](C(N)=O)C(C)C)NC(=O)[C@H](Cc2ccccc2)NC(=O)[C@H](Cc2c[nH]cn2)NC(=O)[C@@H]2CCCN2C1=O [IGE129, VQCPHFCYV-nh2] (H-VQCPHFCYV-NH2; disulfide 3-7)
EC50 [2]: > 90 µM

Results, then the compound that gave them:

Structure Score [3]: +++*
period of conversion of monomer to disulfide linked homodimer [6]: 3 to 12 days
IC50 ([5]; IGE037: initially, read-out: IC50): ~300 µM
Compound: CC(C)C[C@H](NC(=O)[C@H](C)N)C(=O)N[C@H]1CSSC[C@@H](C(=O)N[C@@H](Cc2ccc(O)cc2)C(=O)N[C@H](C(N)=O)C(C)C)NC(=O)[C@H](C(C)C)NC(=O)[C@H](C)NC(=O)[C@@H]2CCCN2C1=O [IGE037, ALCPAVCYV-nh2] (H-ALCPAVCYV-NH2; disulfide 3-7; N-terminus assumed)

EC50 [2]: 64 µM
Structure Score [3]: +++
inhibiting 125I-IgE binding to cell surface expressed FcεRI (in words) [5]: Significant inhibitory activity
IC50 [5, 8]: 64 µM
Compound: CC(C)C[C@H](NC(=O)[C@H](C)N)C(=O)N[C@H]1CSSC[C@@H](C(=O)N[C@@H](Cc2ccc(O)cc2)C(=O)N[C@H](C(N)=O)C(C)C)NC(=O)[C@H](C(C)C)NC(=O)[C@H](C)NC(=O)[C@@H]2CCCN2C(=O)[C@@H](NC(=O)[C@H](CC(C)C)NC(=O)[C@H](C)N)CSSC[C@@H](C(=O)N[C@@H](Cc2ccc(O)cc2)C(=O)N[C@H](C(N)=O)C(C)C)NC(=O)[C@H](C(C)C)NC(=O)[C@H](C)NC(=O)[C@@H]2CCCN2C1=O [IGE089] (I: H-ALCPAVCYV-NH2 / II: H-ALCPAVCYV-NH2; disulfide I:3-II:7, I:7-II:3)

EC50 [2]: > 450 µM
Structure Score [3]: +/−
IC50 [5, 8]: > 450 µM
Compound: CC(C)C[C@H](NC(=O)[C@H](C)N)C(=O)N[C@H]1CSSC[C@H](NC(=O)[C@H](CC(C)C)NC(=O)[C@H](C)N)C(=O)N2CCC[C@H]2C(=O)N[C@@H](C)C(=O)N[C@@H](C(C)C)C(=O)N[C@H](C(=O)N[C@@H](Cc2ccc(O)cc2)C(=O)N[C@H](C(N)=O)C(C)C)CSSC[C@@H](C(=O)N[C@@H](Cc2ccc(O)cc2)C(=O)N[C@H](C(N)=O)C(C)C)NC(=O)[C@H](C(C)C)NC(=O)[C@H](C)NC(=O)[C@@H]2CCCN2C1=O [IGE088, ALCPAVCYV-nh2] (I: H-ALCPAVCYV-NH2 / II: H-ALCPAVCYV-NH2; disulfide I:3-II:3, I:7-II:7; N-terminus assumed)
